Measured values from patent US11400038B2, “Synergistic antioxidant compositions” (RODAN & FIELDS, LLC, priority 2019, dated 2022).

Columns and labels:
Adult human fibroblasts = assay: Phototoxicity (PHTX): cell viability pre- and post-UVA irradiation by MTT assay (Test Method B); type: cell-based; details: for cell metabolism versus solvent control, in words: UV-irradiation assay, individual antioxidants; for PHTX Results: phototoxicity: individual antioxidant
Method: The cell viability was measured by determining the cells metabolic activity with a MTT assay according to Test Method B, the results are presented in Table 5. An MTT assay is a colorimetric assay for assessing cell metabolic activity.
Adult human fibroblasts were grown to exponential stage in a 96-well plate in DMEM and 10% FBS in humidified atmosphere, 37° C. in 5% CO2. Prior to irradiation, half of cell culture medium was replaced with PBS, treated with 0.1% test material (diluted in double distilled water), and incubated for an additional 1 hour 45 minutes. Following incubation, half of the plate was irradiated with UVA lamp UVA-28T at 5 mW/cm2 for 12 minutes, and the other half remained covered with aluminum foil. Following irradiation, PBS with test materials was replaced by fresh cell culture medium and plate was incubated for an additional 24 hours. Cell viability was then analyzed via MTT assay to quantify metabolic activity.

[1] = tested on: UVA-induced Reactive Oxygen Species in Human Dermal Fibroblasts; assay: DCFH reactive oxygen species quantification in UVA-irradiated fibroblasts (Test Method C); type: cell-based; details: individual antioxidant, + pro-oxidant
Method: Compositions of Ex1-Ex8 have been tested for reactive oxygen species quantification in UVA-irradiated human dermal fibroblasts. The quantification result is expressed as a percentage of the water control and determined by the Test Method C and resented in Table 6.
Adult human fibroblasts were grown in a 96 well plate in DMEM+5% FBS. At exponential growth stage, medium was replaced with PBS and cells were loaded with 10 μM DCFH-DA (2′-7′-Dichlorofluorescin diacetate). Cells were incubated for 15 minutes at 37° C., rinsed, and incubated with test materials at 1 mg/ml (0.1% w/w) for an additional 20 minutes. Following incubation, plate was irradiated at 5 mW/cm2 for 10 minutes. Measurements of DCF-originated fluorescence were taken before and after irradiation as, in the presence of free radicals, DCFH is oxidized to highly fluorescent DCF, which can be detected in living cells at ex/em 488/530 nm. Total insoluble proteins were quantified to determine effect of test materials on cell number and to standardize ROS signal to cell number using the following equation: [ΔROS signal (t10 min−t0)]\[cell number (background−corrected)]. Water was used as a negative control.

Row | SMILES | cell metabolism versus solvent control, in words (Adult human fibroblasts) | PHTX Results: phototoxicity (Adult human fibroblasts) | DCFH Results (intracellular antioxidant): radical activity [1]
1 | O=C(/C=C/c1ccc(O)c(O)c1)O[C@H](Cc1ccc(O)c(O)c1)C(=O)O [Rosmarinic acid, (2R)-3-(3,4-dihydroxyphenyl)-2-{[(2E)-3-(3,4-dihydroxyphenyl)prop-2-enoyl]oxy}propanoic acid] | lower cell metabolism than solvent control | not phototoxic | −52% radical
2 | C[C@@H]1O[C@@H](OC[C@H]2O[C@@H](Oc3c(-c4ccc(O)c(O)c4)oc4cc(O)cc(O)c4c3=O)[C@H](O)[C@@H](O)[C@@H]2O)[C@H](O)[C@H](O)[C@H]1O [Rutin, 2-(3,4-dihydroxyphenyl)-5,7-dihydroxy-3-[α-L-rhamnopyranosyl-(1→6)-β-D-glucopyranosyloxy]-4H-chromen-4-one] | lower cell metabolism than solvent control | not phototoxic | No Activity
